According to BindingDB's records for doi:10.1016/0960-894X(95)00537-3 (1995):

Target: Gastrin/cholecystokinin type B receptor (Cavia porcellus)
Assay: Inhibitory activity towards binding of [125I]Bolton-Hunter-CCK-8 to CCKB receptor in guinea pig cortical tissue

| Structure (SMILES) | IC50 |
| --- | --- |
| Cc1cccc(NC(=O)N[C@H](CCC(=O)OCc2ccccc2)C(=O)N2CCN(C(=O)c3ccccc3)CC2)c1 | > 10 µM |
| Cc1cccc(NC(=O)N[C@H](CCc2ccccc2)C(=O)N2CCC(C(=O)c3ccccc3)CC2)c1 [1-[(R)-1-(4-Benzoyl-piperidine-1-carbonyl)-3-phenyl-propyl]-3-m-tolyl-urea] | 3.9 µM |
| CCCC[C@@H](NC(=O)Nc1cccc(C)c1)C(=O)N1CCC(C(=O)c2ccccc2)CC1 [1-[(R)-1-(4-Benzoyl-piperidine-1-carbonyl)-pentyl]-3-m-tolyl-urea] | 4.8 µM |
| Cc1cccc(NC(=O)N[C@H](COCc2ccccc2)C(=O)N2CCC(Cc3ccccc3)CC2)c1 [1-[(R)-1-Benzyloxymethyl-2-(4-benzyl-piperidin-1-yl)-2-oxo-ethyl]-3-m-tolyl-urea] | > 5.9 µM |
| CC(=O)C1CCN(C(=O)[C@@H](COCc2ccccc2)NC(=O)Nc2cccc(C)c2)CC1 [1-[(R)-2-(4-Acetyl-piperidin-1-yl)-1-benzyloxymethyl-2-oxo-ethyl]-3-m-tolyl-urea] | > 6.9 µM |
| Cc1cccc(NC(=O)N[C@H](CCCc2ccccc2)C(=O)N2CCC(C(=O)c3ccccc3)CC2)c1 [1-{1-[(R)-(4-Benzoyl-piperidin-1-yl)-oxo-methyl]-4-phenyl-butyl}-3-m-tolyl-urea] | 1.1 µM |
| Cc1cccc(NC(=O)N[C@H](CCC(=O)OCc2ccccc2)C(=O)N2CCC(NC(=O)c3ccccc3)CC2)c1 [5-(4-Benzoylamino-piperidin-1-yl)-5-(R)-oxo-4-(3-m-tolyl-ureido)-pentanoic acid benzyl ester] | > 10 µM |
| Cc1cccc(NC(=O)N[C@H](CCC(=O)OCc2ccccc2)C(=O)N2CCC(C(=O)Nc3ccccc3)CC2)c1 [5-(R)-Oxo-5-(4-phenylcarbamoyl-piperidin-1-yl)-4-(3-m-tolyl-ureido)-pentanoic acid benzyl ester] | 2 µM |
| Cc1cccc(NC(=O)N[C@H](COC(=O)N(C)C)C(=O)N2CCC(C(=O)c3ccccc3)CC2)c1 [Dimethyl-carbamic acid (R)-3-(4-benzoyl-piperidin-1-yl)-3-oxo-2-(3-m-tolyl-ureido)-propyl ester] | 1.5 µM |
| CC(Cc1c[nH]c2ccccc12)(NC(=O)OC1[C@H]2C[C@@H]3C[C@@H](C[C@H]1C3)C2)C(=O)N1CCC(C(=O)c2ccccc2)CC1 (some centres not stated) [[2-(4-Benzoyl-piperidin-1-yl)-1-(1H-indol-3-ylmethyl)-1-methyl-2-oxo-ethyl]-carbamic acid adamantan-2-yl ester] | 3.4 µM |
| CC(C)C[C@H](NC(=O)[C@H](Cc1c[nH]c2ccccc12)NC(=O)OC(C)(C)C)C(=O)N1CCC(Cc2ccccc2)CC1 [[(S)-1-[(S)-1-(4-Benzyl-piperidine-1-carbonyl)-3-methyl-butylcarbamoyl]-2-(1H-indol-3-yl)-ethyl]-carbamic acid tert-butyl ester] | > 10 µM |
| CC(C)(C)OC(=O)N[C@@H](Cc1c[nH]c2ccccc12)C(=O)N1CCC(C(=O)c2ccccc2)CC1 [[(S)-2-(4-Benzoyl-piperidin-1-yl)-1-(1H-indol-3-ylmethyl)-2-oxo-ethyl]-carbamic acid tert-butyl ester] | > 10 µM |

Now those with a lower IC50, led by results:

| IC50 | Structure (SMILES) |
| --- | --- |
| 0.3 µM | Cc1cccc(NC(=O)N[C@H](COCc2ccccc2)C(=O)N2CCC(C(=O)c3ccccc3)CC2)c1 [1-[(R)-2-(4-Benzoyl-piperidin-1-yl)-1-benzyloxymethyl-2-oxo-ethyl]-3-m-tolyl-urea] |
| 0.16 µM | Cc1cccc(NC(=O)N[C@H](COCc2ccccc2)C(=O)N2CCC(C(=O)Nc3ccccc3)CC2)c1 [1-[(R)-3-Benzyloxy-2-(3-m-tolyl-ureido)-propionyl]-piperidine-4-carboxylic acid phenylamide] |
| 0.81 µM | Cc1cccc(NC(=O)N[C@H](CS(=O)(=O)Cc2ccccc2)C(=O)N2CCC(C(=O)c3ccccc3)CC2)c1 [1-[(S)-2-(4-Benzoyl-piperidin-1-yl)-2-oxo-1-phenylmethanesulfonylmethyl-ethyl]-3-m-tolyl-urea] |
| 0.23 µM | Cc1cccc(NC(=O)N[C@H](COCc2ccccc2)C(=O)N2CCC(C(=O)c3ccc(F)cc3)CC2)c1 [1-{1-((R)-Benzyloxymethyl)-2-[4-(4-fluoro-benzoyl)-piperidin-1-yl]-2-oxo-ethyl}-3-m-tolyl-urea] |
| 0.44 µM | Cc1cccc(NC(=O)N[C@@H](C(=O)N2CCC(C(=O)c3ccccc3)CC2)[C@@H](C)OCc2ccccc2)c1 [1-{(R)-1-[(R)-(4-Benzoyl-piperidin-1-yl)-oxo-methyl]-2-benzyloxy-propyl}-3-m-tolyl-urea] |
| 0.18 µM | Cc1cccc(NC(=O)N[C@H](COC(=O)N2CCOCC2)C(=O)N2CCC(C(=O)c3ccccc3)CC2)c1 [Morpholine-4-carboxylic acid (R)-3-(4-benzoyl-piperidin-1-yl)-3-oxo-2-(3-m-tolyl-ureido)-propyl ester] |
| 0.12 µM | Cc1cccc(NC(=O)N[C@H](COC(=O)Nc2ccccc2)C(=O)N2CCC(C(=O)c3ccccc3)CC2)c1 [Phenyl-carbamic acid (R)-3-(4-benzoyl-piperidin-1-yl)-3-oxo-2-(3-m-tolyl-ureido)-propyl ester] |
| 0.1 µM | Cc1cccc(NC(=O)N[C@H](COC(=O)N2CCCC2)C(=O)N2CCC(C(=O)c3ccccc3)CC2)c1 [Pyrrolidine-1-carboxylic acid (R)-3-(4-benzoyl-piperidin-1-yl)-3-oxo-2-(3-m-tolyl-ureido)-propyl ester] |
| 0.034 µM | Cc1cccc(NC(=O)N[C@H](COC(=O)N2CCCC2)C(=O)N2CCC(C(=O)Nc3ccccc3)CC2)c1 [Pyrrolidine-1-carboxylic acid (R)-3-oxo-3-(4-phenylcarbamoyl-piperidin-1-yl)-2-(3-m-tolyl-ureido)-propyl ester] |
| 0.912 µM | CC(C)C[C@H](NC(=O)[C@H](Cc1c[nH]c2ccccc12)NC(=O)OC(C)(C)C)C(=O)N1CCC(C(=O)c2ccccc2)CC1 [[(S)-1-[(S)-1-(4-Benzoyl-piperidine-1-carbonyl)-3-methyl-butylcarbamoyl]-2-(1H-indol-3-yl)-ethyl]-carbamic acid tert-butyl ester] |
